Results published in US10004701B2, “Methods and compositions for treating infection” (UNIVERSITY OF ROCHESTER, priority 2012, dated 2018).
Counter-ions that a name gives are not always drawn. Like-named read-outs stand apart in the source and are kept apart here.

How the values were obtained:
Assay in all cases: AK assay 384-well format, Prestwick library screening
P. aeruginosa = type: cell-based, Pseudomonas aeruginosa; settings: for fold induction at 50 µM: Pseudomonas aeruginosa, 3 h
E. cloacae = type: cell-based, Enterobacter cloacae; settings: Enterobacter cloacae, 3 h, 50 μM final drug concentration, cutoff for positive-scoring molecules 3-fold increase
E. faecium = type: cell-based, Enterococcus faecium; settings: for fold induction at 50 µM: Enterococcus faecium, 3 h
E. coli = type: cell-based, Escherichia coli; settings: for fold induction at 50 µM: Escherichia coli, 3 h
K. pneumoniae = type: cell-based, Klebsiella pneumoniae; settings: for fold induction at 50 µM: Klebsiella pneumoniae, 3 h
[1] = system: A. baumannii strain 98-37-09; type: cell-based, Acinetobacter baumannii; settings: for fold induction at 50 µM: Acinetobacter baumannii, 983709, 3 h
[2] = system: S. aureus strain USA300-0114; type: cell-based, Staphylococcus aureus; settings: for fold induction at 50 µM: Staphylococcus aureus, USA300, 3 h
[3] = 50 μM final drug concentration, cutoff for positive-scoring molecules 3-fold increase, read-out: AK-based Prestwick Library Screening Results, P. aeruginosa (fold increase in extracellular AK activity)
[4] = 50 μM final drug concentration, cutoff for positive-scoring molecules 3-fold increase, read-out: AK-based Prestwick Library Screening Results, E. faecium (fold increase in extracellular AK activity)
[5] = 50 μM final drug concentration, […], read-out: AK-based Prestwick Library Screening Results, E. coli (fold increase in extracellular AK activity)
[6] = 50 μM final drug concentration, cutoff for positive-scoring molecules 3-fold increase, read-out: AK-based Prestwick Library Screening Results, K. pneumoniae (fold increase in extracellular AK activity)
[7] = 50 μM final drug concentration, cutoff for positive-scoring molecules 3-fold increase, read-out: AK-based Prestwick Library Screening Results, A. baumannii (fold increase in extracellular AK activity)
[8] = planktonic E. coli, 50 μM final drug concentration, 384-well, […]

Compound: CS(=O)(=O)c1ccc([C@@H](O)[C@@H](CF)NC(=O)C(Cl)Cl)cc1 [Florfenicol]
- fold induction at 50 µM (P. aeruginosa; [3]): 1.4
- fold induction at 50 µM (E. cloacae; read-out: AK-based Prestwick Library Screening Results, E. cloacae (fold increase in extracellular AK activity)): 1.4
- fold induction at 50 µM (E. faecium; [4]): 1
- fold induction at 50 µM (E. coli; [5]): 1.2
- fold induction at 50 µM (K. pneumoniae; [6]): 0.3
- fold induction at 50 µM [1, 7]: 1.2

Compound: C=C[C@H]1C[N@@]2CC[C@H]1C[C@@H]2[C@@H](O)c1ccnc2ccc(OC)cc12 [Quinidine hydrochloride monohydrate]
- fold induction at 50 µM (P. aeruginosa; 50 μM final drug concentration, 384-well format, […], read-out: AK-based Prestwick Library Screening Results, P. aeruginosa (increase in extracellular AK activity)): 0.9
- fold induction at 50 µM (E. faecium; 50 μM final drug concentration, 384-well format, […], read-out: AK-based Prestwick Library Screening Results, E. faecium (increase in extracellular AK activity)): 1
- fold induction at 50 µM (E. coli; 50 μM final drug concentration, 384-well format, […], read-out: AK-based Prestwick Library Screening Results, E. coli (increase in extracellular AK activity)): 1
- fold induction at 50 µM (K. pneumoniae; 50 μM final drug concentration, 384-well format, […], read-out: AK-based Prestwick Library Screening Results, K. pneumoniae (increase in extracellular AK activity)): 0.8
- fold induction at 50 µM ([1]; 50 μM final drug concentration, 384-well format, […], read-out: AK-based Prestwick Library Screening Results, A. baumannii (increase in extracellular AK activity)): 0.9
- fold induction at 50 µM ([2]; 50 μM final drug concentration, 384-well format, […], read-out: AK-based Prestwick Library Screening Results, S. aureus (increase in extracellular AK activity)): 0.9

Compound: CCOC(=O)c1cncn1[C@H](C)c1ccccc1 [Etomidate]
- fold induction at 50 µM (P. aeruginosa; 50 μM final drug concentration, […], read-out: AK-based Prestwick Library Screening Results, P. aeruginosa (fold increase in extracellular AK activity)): 0.4
- fold induction at 50 µM (E. faecium; 50 μM final drug concentration, […], read-out: AK-based Prestwick Library Screening Results, E. faecium (fold increase in extracellular AK activity)): 0.9
- fold induction at 50 µM (E. coli; [5]): 0.5
- fold induction at 50 µM (K. pneumoniae; 50 μM final drug concentration, […], read-out: AK-based Prestwick Library Screening Results, K. pneumoniae (fold increase in extracellular AK activity)): 0.4
- fold induction at 50 µM ([1]; 50 μM final drug concentration, […], read-out: AK-based Prestwick Library Screening Results, A. baumannii (fold increase in extracellular AK activity)): 0.3
- fold induction at 50 µM ([2]; 50 μM final drug concentration, […], read-out: AK-based Prestwick Library Screening Results, S. aureus (fold increase in extracellular AK activity)): 0.3

Compound: Oc1ccc(C=Cc2cc(O)cc(O)c2)cc1 [Resveratrol]
- fold induction at 50 µM (E. cloacae; planktonic E. cloacae, read-out: AK-based Prestwick Library Screening Results, E. cloacae (increase in extracellular AK activity)): 0.1

Compound: CN1[C@@H]2CC[C@H]1C[C@@H](OC(=O)[C@H](CO)c1ccccc1)C2 [Hyoscyamine (L)]
- AK-based Prestwick Library Screening Results: P. aeruginosa (increase in extracellular AK activity) (P. aeruginosa; planktonic P. aeruginosa, 50 μM final drug concentration, 384-well, […]): 1.2
- AK-based Prestwick Library Screening Results: E. faecium (increase in extracellular AK activity) (E. faecium; planktonic E. faecium, 50 μM final drug concentration, 384-well, […]): 1.0
- AK-based Prestwick Library Screening Results: E. coli (increase in extracellular AK activity) (E. coli; [8]): 1.3
- AK-based Prestwick Library Screening Results: K. pneumoniae (increase in extracellular AK activity) (K. pneumoniae; planktonic K. pneumoniae, 50 μM final drug concentration, 384-well, […]): 1.2
- AK-based Prestwick Library Screening Results: A. baumannii (increase in extracellular AK activity) ([1]; planktonic A. baumannii, 50 μM final drug concentration, 384-well, […]): 1.4
- AK-based Prestwick Library Screening Results: S. aureus (increase in extracellular AK activity) ([2]; planktonic S. aureus, 50 μM final drug concentration, 384-well, […]): 1.2

Compound: COc1cc2nc(N3CCN(C(=O)c4ccco4)CC3)nc(N)c2cc1OC [Prazosin hydrochloride]
- fold induction at 50 µM (P. aeruginosa; [3]): 1.1
- fold induction at 50 µM (E. faecium; [4]): 1.1
- fold induction at 50 µM (E. coli; 50 μM final drug concentration, cutoff for positive-scoring molecules 3-fold increase, read-out: AK-based Prestwick Library Screening Results, E. coli (fold increase in extracellular AK activity)): 1.2
- fold induction at 50 µM (K. pneumoniae; [6]): 0.9
- fold induction at 50 µM [1, 7]: 1.4
- fold induction at 50 µM ([2]; 50 μM final drug concentration, cutoff for positive-scoring molecules 3-fold increase, read-out: AK-based Prestwick Library Screening Results, S. aureus (fold increase in extracellular AK activity)): 1.4

Compound: Clc1ccccc1CN1CCc2sccc2C1 [Ticlopidine hydrochloride]
- fold induction at 50 µM (P. aeruginosa; 50 μM final drug concentration, 384-well format, cutoff for positive-scoring molecules 3-fold increase, read-out: AK-based Prestwick Library Screening Results, P. aeruginosa (increase in extracellular AK activity)): 1.1
- fold induction at 50 µM (E. faecium; 50 μM final drug concentration, 384-well format, cutoff for positive-scoring molecules 3-fold increase, read-out: AK-based Prestwick Library Screening Results, E. faecium (increase in extracellular AK activity)): 1
- fold induction at 50 µM (E. coli; 50 μM final drug concentration, 384-well format, cutoff for positive-scoring molecules 3-fold increase, read-out: AK-based Prestwick Library Screening Results, E. coli (increase in extracellular AK activity)): 1.3
- fold induction at 50 µM (K. pneumoniae; 50 μM final drug concentration, 384-well format, cutoff for positive-scoring molecules 3-fold increase, read-out: AK-based Prestwick Library Screening Results, K. pneumoniae (increase in extracellular AK activity)): 1
- fold induction at 50 µM ([1]; 50 μM final drug concentration, 384-well format, cutoff for positive-scoring molecules 3-fold increase, read-out: AK-based Prestwick Library Screening Results, A. baumannii (increase in extracellular AK activity)): 1.1
- fold induction at 50 µM ([2]; 50 μM final drug concentration, 384-well format, cutoff for positive-scoring molecules 3-fold increase, read-out: AK-based Prestwick Library Screening Results, S. aureus (increase in extracellular AK activity)): 0.8

Compound: COc1ccc(CCN(C)CCCC(C#N)(c2ccc(OC)c(OC)c2)C(C)C)cc1OC.Cl (stereo not shown) [Verapamyl hydrochloride]
- AK-based Prestwick Library Screening Results: P. aeruginosa (increase in extracellular AK activity) (P. aeruginosa; planktonic P. aeruginosa, 50 μM final drug concentration, 384-well, cutoff for positive-scoring molecules 3-fold increase): 1.2
- AK-based Prestwick Library Screening Results: E. faecium (increase in extracellular AK activity) (E. faecium; planktonic E. faecium, 50 μM final drug concentration, 384-well, cutoff for positive-scoring molecules 3-fold increase): 0.9
- AK-based Prestwick Library Screening Results: E. coli (increase in extracellular AK activity) (E. coli; [8]): 1.3
- AK-based Prestwick Library Screening Results: K. pneumoniae (increase in extracellular AK activity) (K. pneumoniae; planktonic K. pneumoniae, 50 μM final drug concentration, 384-well, cutoff for positive-scoring molecules 3-fold increase): 0.9
- AK-based Prestwick Library Screening Results: A. baumannii (increase in extracellular AK activity) ([1]; planktonic A. baumannii, 50 μM final drug concentration, 384-well, cutoff for positive-scoring molecules 3-fold increase): 1.5
- AK-based Prestwick Library Screening Results: S. aureus (increase in extracellular AK activity) ([2]; planktonic S. aureus, 50 μM final drug concentration, 384-well, cutoff for positive-scoring molecules 3-fold increase): 1.2

Compound: CN1[C@@H]2CC[C@H]1C[C@@H](OC(=O)C(CO)c1ccccc1)C2 (stereo partly shown) [Atropine sulfate monohydrate]
- fold induction at 50 µM (P. aeruginosa; planktonic P. aeruginosa, 50 μM final drug concentration, […], read-out: AK-based Prestwick Library Screening Results, P. aeruginosa (increase in extracellular AK activity)): 0.5
- fold induction at 50 µM (E. faecium; planktonic E. faecium, 50 μM final drug concentration, […], read-out: AK-based Prestwick Library Screening Results, E. faecium (increase in extracellular AK activity)): 0.8
- fold induction at 50 µM (E. coli; planktonic E. coli, 50 μM final drug concentration, […], read-out: AK-based Prestwick Library Screening Results, E. coli (increase in extracellular AK activity)): 0.6
- fold induction at 50 µM (K. pneumoniae; planktonic K. pneumoniae, 50 μM final drug concentration, […], read-out: AK-based Prestwick Library Screening Results, K. pneumoniae (increase in extracellular AK activity)): 0.5
- fold induction at 50 µM ([1]; planktonic A. baumannii, 50 μM final drug concentration, […], read-out: AK-based Prestwick Library Screening Results, A. baumannii (increase in extracellular AK activity)): 0.5
- fold induction at 50 µM ([2]; planktonic S. aureus, 50 μM final drug concentration, […], read-out: AK-based Prestwick Library Screening Results, S. aureus (increase in extracellular AK activity)): 0.5

Compound: O=C1CC[C@@]2(O)[C@H]3Cc4ccc(O)c5c4[C@@]2(CCN3CC2CC2)[C@H]1O5 [Naltrexone hydrochloride dihydrate]
- fold induction at 50 µM (P. aeruginosa; read-out: AK-based Prestwick Library Screening Results, P. aeruginosa (increase in extracellular AK activity)): 0.8
- fold induction at 50 µM (E. faecium; read-out: AK-based Prestwick Library Screening Results, E. faecium (increase in extracellular AK activity)): 1
- fold induction at 50 µM (E. coli; read-out: AK-based Prestwick Library Screening Results, E. coli (increase in extracellular AK activity)): 0.9
- fold induction at 50 µM (K. pneumoniae; read-out: AK-based Prestwick Library Screening Results, K. pneumoniae (increase in extracellular AK activity)): 0.6
- fold induction at 50 µM ([1]; read-out: AK-based Prestwick Library Screening Results, A. baumannii (increase in extracellular AK activity)): 0.9
- fold induction at 50 µM ([2]; read-out: AK-based Prestwick Library Screening Results, S. aureus (increase in extracellular AK activity)): 0.7

Compound: CN(C)CCCN1c2ccccc2CCc2ccccc21 [Imipramine hydrochloride]
- fold induction at 50 µM (P. aeruginosa; planktonic P. aeruginosa, 50 μM final drug concentration, 384-well, cutoff for positive-scoring molecules 3-fold increase, read-out: AK-based Prestwick Library Screening Results: P. aeruginosa (increase in extracellular AK activity)): 1.1
- fold induction at 50 µM (E. faecium; planktonic E. faecium, 50 μM final drug concentration, 384-well, cutoff for positive-scoring molecules 3-fold increase, read-out: AK-based Prestwick Library Screening Results: E. faecium (increase in extracellular AK activity)): 0.9
- fold induction at 50 µM (E. coli; planktonic E. coli, 50 μM final drug concentration, 384-well, cutoff for positive-scoring molecules 3-fold increase, read-out: AK-based Prestwick Library Screening Results: E. coli (increase in extracellular AK activity)): 1.2
- fold induction at 50 µM (K. pneumoniae; planktonic K. pneumoniae, 50 μM final drug concentration, 384-well, cutoff for positive-scoring molecules 3-fold increase, read-out: AK-based Prestwick Library Screening Results: K. pneumoniae (increase in extracellular AK activity)): 1
- fold induction at 50 µM ([1]; planktonic A. baumannii, 50 μM final drug concentration, 384-well, cutoff for positive-scoring molecules 3-fold increase, read-out: AK-based Prestwick Library Screening Results: A. baumannii (increase in extracellular AK activity)): 1.3
- fold induction at 50 µM ([2]; planktonic S. aureus, 50 μM final drug concentration, 384-well, cutoff for positive-scoring molecules 3-fold increase, read-out: AK-based Prestwick Library Screening Results: S. aureus (increase in extracellular AK activity)): 1.2
